Tests used:
human mGluR5d = molecular target: T1, human mGluR5d (Homo sapiens, UniProt P41594); assay: FLIPR assay, functional assessment of mGluR5 antagonism (intracellular calcium mobilization); format: cell-based; conditions: cells expressing human mGluR5d; IC50 determination; read-out: FLIPR hmGluR5d
T1 construct: expressed in transfected cells; The cells are kept under Hygromycin B and Zeocin selection; The separate IP3 assay names GHEK cells stably expressing human mGluR5d
Source text: Functional Assessment of mGluR5 Antagonism in Cell Lines Expressing mGluR5D
The properties of the compounds of the invention can be analyzed using standard assays for pharmacological activity. Examples of glutamate receptor assays are well known in the art as described in for example Aramori et al., Neuron 8:757 (1992), Tanabe et al., Neuron 8:169 (1992), Miller et al., J. Neuroscience 15: 6103 (1995), Balazs, et al., J Neurochemistry 69:151 (1997). The methodology described in these publications is incorporated herein by reference. […]
Cells expressing human mGluR5d as described in WO97/05252 cultured in a mixture of high glucose DMEM with Glutamax (31966-021)(500 mL), 10% dialyzed fetal bovine serum (Hyclone #SH30079.03)(56 mL), 200 μg/mL Hygromycin B (Invitrogen 45-0430, 50 mg/mL)(2.2 mL), 200 μg/mL Zeocin (Invitrogen #R250-01; 100 mg/mL)(1.1 mL) are seeded at a density of 100,000 cells per well on collagen coated clear bottom 96-well plates with black sides and cells were allowed to adhere over night before experiments. […] The fluorescence signal is sampled 50 times at 1-second intervals followed by 3 samples at 5-second intervals immediately after each of the two additions. Responses are measured as the difference between the peak heights of the response to agonist, less the background fluorescence within the sample period. […]

[1] = Determination of brain to plasma ratio in rat; format: in vivo; conditions: brain and plasma, female Sprague Dawley rats, read-out: Brain/Plasma Ratio of compound in Rat
Protocol: Brain to plasma ratios are estimated in female Sprague Dawley rats. The compound is dissolved in water or another appropriate vehicle. For determination of brain to plasma ratio the compound is administrated as a subcutaneous, or an intravenous bolus injection, or an intravenous infusion, or an oral administration. At a predetermined time point after the administration a blood sample is taken with cardiac puncture. The rat is terminated by cutting the heart open, and the brain is immediately retained. The blood samples are collected in heparinized tubes and centrifuged within 30 minutes, in order to separate the plasma from the blood cells. The plasma is transferred to 96-well plates and stored at −20° C. until analysis. The brains are divided in half, and each half is placed in a pre-tarred tube and stored at −20° C. until analysis. Prior to the analysis, the brain samples are thawed and 3 mL/g brain tissue of distilled water is added to the tubes. The brain samples are sonicated in an ice bath until the samples are homogenized. Both brain and plasma samples are precipitated with acetonitrile. After centrifugation, the supernatant is diluted with 0.2% formic acid. […] After reconstitution of the residuals the samples are ready for injection onto the HPLC column.

T1 sequence (P41594 21-942 isoform P41594-3 limits assumed): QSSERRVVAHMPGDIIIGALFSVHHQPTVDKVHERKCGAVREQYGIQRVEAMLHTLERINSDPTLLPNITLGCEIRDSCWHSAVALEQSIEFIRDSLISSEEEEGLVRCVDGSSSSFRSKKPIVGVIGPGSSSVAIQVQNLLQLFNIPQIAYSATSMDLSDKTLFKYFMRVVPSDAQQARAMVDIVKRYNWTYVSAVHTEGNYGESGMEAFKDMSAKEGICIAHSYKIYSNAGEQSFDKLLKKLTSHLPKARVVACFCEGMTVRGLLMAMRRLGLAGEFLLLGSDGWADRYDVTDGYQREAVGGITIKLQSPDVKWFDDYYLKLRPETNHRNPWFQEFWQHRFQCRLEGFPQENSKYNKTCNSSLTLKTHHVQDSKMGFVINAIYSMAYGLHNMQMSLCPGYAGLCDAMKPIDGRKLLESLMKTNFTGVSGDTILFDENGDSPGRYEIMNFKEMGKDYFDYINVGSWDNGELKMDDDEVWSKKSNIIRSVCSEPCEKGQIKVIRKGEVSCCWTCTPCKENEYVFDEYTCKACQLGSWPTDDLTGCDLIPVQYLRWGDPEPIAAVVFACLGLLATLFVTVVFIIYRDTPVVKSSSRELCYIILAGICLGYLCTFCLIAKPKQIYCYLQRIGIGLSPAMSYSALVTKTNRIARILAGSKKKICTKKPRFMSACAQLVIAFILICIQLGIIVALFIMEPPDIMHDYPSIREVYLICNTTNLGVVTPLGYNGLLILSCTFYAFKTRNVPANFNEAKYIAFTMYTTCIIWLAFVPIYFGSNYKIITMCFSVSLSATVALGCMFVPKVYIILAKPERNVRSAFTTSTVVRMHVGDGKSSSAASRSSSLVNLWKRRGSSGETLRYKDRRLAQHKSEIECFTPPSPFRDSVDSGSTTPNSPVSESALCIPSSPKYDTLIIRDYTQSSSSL

| IC50 (human mGluR5d) [nM] | Kp [1] | SMILES |
| --- | --- | --- |
| 16 | < 0.01 | CNC(=O)c1ccc(-c2nnc(N3CCC[C@@H]3c3cc(-c4cccc(Cl)c4)on3)n2C)cc1 [Example 6.2, 4-[5-[(2R)-2-[5-(3-Chlorophenyl)1,2-oxazol-3-yl]pyrrolidin-1-yl]-4-methyl-1,2,4-triazo1-3-yl]-N-methyl-benzamide] |
| 11 | < 0.01 | Cn1c(-c2ccc(C(N)=O)cc2)nnc1N1CCC[C@@H]1c1cc(-c2cccc(Cl)c2)on1 [Example 6.1, 4-[5-[(2R)-2-[5-(3-Chlorophenyl)1,2-oxazol-3-yl]pyrrolidin-1-yl]-4-methyl-1,2,4-triazol-3-yl]benzamide] |
